According to publication PMC4343023, “Selectivity of odorant-binding proteins from the southern house mosquito tested against physiologically relevant ligands” (Frontiers in Physiology, 2015):
Like-named read-outs stand apart in the source and are kept apart here.

Assays:
AfunOBP1 = system: AfunOBP1; set-up: method as in Xu et al., 2010; conditions: panel of EAG-active compounds; ref Xu et al., 2010; cited from earlier work
CquiOBP5 = CquiOBP5 (Culex quinquefasciatus, UniProt C7BDZ9); assay: biochemical; assay type: binding; conditions: for Int (fluorescence emission): residual NPN fluorescence, normalized to 100 prior to ligand, screen at 2–20 μM ligand; for binding to CquiOBP5 (in words): in vitro, NPN displacement
Sequence of CquiOBP5 (C7BDZ9 entry or part of it): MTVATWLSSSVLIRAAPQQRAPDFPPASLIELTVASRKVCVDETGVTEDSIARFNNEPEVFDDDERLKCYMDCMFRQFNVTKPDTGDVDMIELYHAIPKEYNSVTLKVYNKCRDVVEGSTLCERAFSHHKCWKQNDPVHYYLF
Method: (§1) Binding affinity (Ban et al., [2002]) was tested with a panel of 34 compounds, including attractants, a mosquito oviposition pheromone, repellents, terpenoids and other putative mosquito attractants or repellents. Unless otherwise specified, they were purchased from Sigma-Aldrich/Fluka/Acros (St. Louis, MO). Repellents: DEET (N,N-diethyl-3-methylbenzamide), PMD (p-mentan-3,8-diol) (Bedoukian Research, Inc.), picaridin (butan-2-yl 2-(2-hydroxyethyl)piperidine-1-carboxylate), IR3535 (ethyl 3-[acetyl(butyl)amino]propanoate) (gifts from Dr. Kamal Chauhan, USDA, ARS, Beltsville), (±)-citronellal, and ethyl 2-phenylacetate. Oviposition attractants: (5R,6S)-6-acetoxy-5-hexadecanolide, MOP (Bedoukian Research, Inc.), skatole, indole, 4-methylphenol, and 4-ethylphenol. Human derived compounds: nonanal, 6-methyl-5-hepten-2-one (sulcatone). Terpenoids and other putative attractants/repellents: linalool, linalool oxide, eucalyptol, camphor, fenchone, thujone, geranyl acetate, eugenol, (Z)-3-hexenyl acetate, 1-octen-3-ol, 1-octyn-3-ol, 3-octanol, 1-hexanol, methylcyclohexanol, methyl salicylate, cyclohexanone, acetophenone, benzaldehyde, 3,5-dimethoxybenzene, 1,2-dimethoxybenzene, and 2-phenylethanol.
(§2) Fluorescence spectra were recorded in a right angle configuration on a spectrofluorimeter (RF-5301, Shimadzu, Kyoto, Japan) at room temperature using a 1 cm light path fluorimeter quartz cuvette. Slit widths of 10 nm were selected for both excitation and emission. N-phenyl-1-naphthylamine (NPN, or 1-NPN) (Ban et al., [2002]) was dissolved in methanol to yield a 1 mM stock solution. The binding affinity for NPN was determined by adding aliquots of NPN into a 10 μg/ml (microgram) protein sample. NPN was excited at 337 nm and emission spectra were recorded at high speed scanning between 350 and 500 nm. All ligands used in competition experiments were dissolved in spectrophotometric grade methanol. Binding data were collected in three independent measurements. Bound ligand was evaluated from fluorescence intensity assuming that the protein was 100% active, with a stoichiometry of 1:1 (protein: ligand) at saturation. The KNPN values were estimated using Prism 5 (GraphPad Software, Inc., La Jolla, CA) by non-linear regression for a unique site of binding. The curves were linearized using Scatchard plots. Dissociation constants of the competitors were calculated according to Campanacci et al. ([2001]) from the corresponding IC50 values in the equation: Kdiss = [IC50]/1+[NPN]/KNPN, where [NPN] is the free concentration of NPN and KNPN is the dissociation constant of the complex protein/NPN.

CquiOBP2 = CquiOBP2 (Culex quinquefasciatus, UniProt C7BDZ6); assay: biochemical; assay type: binding; conditions: for Int (fluorescence emission): residual NPN fluorescence, normalized to 100 prior to ligand, screen at 2–20 μM ligand; for binding to CquiOBP2 (in words): in vitro, NPN displacement
Sequence of CquiOBP2 (C7BDZ6 entry or part of it): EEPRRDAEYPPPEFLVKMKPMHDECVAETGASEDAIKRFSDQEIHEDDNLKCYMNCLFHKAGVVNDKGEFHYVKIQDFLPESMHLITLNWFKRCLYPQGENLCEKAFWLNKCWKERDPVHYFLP
Method: as §1, §2

CquiOBP1 [1] = biological target: T1, CquiOBP1 (Culex quinquefasciatus, UniProt Q8T6I2); assay: biochemical; assay type: binding; conditions: for Int (fluorescence emission): residual NPN fluorescence, normalized to 100 prior to ligand, screen at 2–20 μM ligand; for binding to CquiOBP1 (in words): in vitro, NPN displacement
T1 sequence (Q8T6I2 entry or part of it): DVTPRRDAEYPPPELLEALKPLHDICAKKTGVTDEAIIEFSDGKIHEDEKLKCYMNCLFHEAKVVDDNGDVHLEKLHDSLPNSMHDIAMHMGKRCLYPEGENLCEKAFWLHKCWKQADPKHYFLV
Method: as §1, §2

AgamOBP1 = system: AgamOBP1; set-up: method as in Biessmann et al., 2010; conditions: ref Biessmann et al., 2010; cited from earlier work
CquiOBP1 [2] = biological target: T1, CquiOBP1; assay: pH-dependent binding assay; conditions: CquiOBP1-NPN quenching by ligand, pH 4.5 to 8, 4PL fit
Method: To investigate the effects of pH on CquiOBP1–ligand complexes, fluorescence binding assay was measured between CquiOBP1 and three best ligands at different pH values. Buffer were prepared into two different ways: starting from 1M phosphate buffer, pH 4, pH was increased and adjusted by adding sodium hydroxide. Then protein was added to make a solution at each tested pH from 4.5 to 8. Experiments were repeated starting from pH 8 and lowering the pH by adding hydrochloric acid. Each tested solution had 200 mM buffer and 10 μg/ml (microgram) of CquiOBP1. As there were no significant differences in fluorescence data generated at a certain pH regardless of having the pH raised by adding NaOH or lowered by addition of HCl, data were pooled for subsequent analysis.
The pH of the midpoint transitions was obtained by non-linear fitting, sigmoidal with an equation for four-parameter logistic (4PL) of curve segments between the lowest and highest decrease in fluorescence (the rising part of each curve). The pH values calculated for the midpoint transitions with MOP, picaridin, and nonanal were 6.3, 5.8, and 5.5, respectively. Although the pH at the surface of dendritic membrane is not known, it is predicted that too low midpoint transition may lead to odorants being trapped in OBPs and not being properly delivered. In short, the acidity at the surface of the membrane may not be enough to trigger release of a ligand with too low midpoint transition pH. By considering only the dissociation constants obtained by in vitro binding assays (Table 1), one could reasonably argue that CquiOBP1 is involved in reception of nonanal. […] Next, we compared how these ligands would interact with CquiOBP1.

[3] = system: Mosquitoes with reduced transcripts of CquiOBP1; set-up: method as in Pelletier et al., 2010; conditions: ref Pelletier et al., 2010; cited from earlier work
AaegOBP1 = system: AaegOBP1; set-up: method as in Leal and Leal, 2015; conditions: ref Leal and Leal, 2015; cited from earlier work
[4] = CquiOBP5, NPN displacement titration, read-out: IC50
[5] = CquiOBP5, calculated from IC50 of NPN displacement, read-out: Kd
[6] = CquiOBP2, NPN displacement titration, read-out: IC50
[7] = CquiOBP2, calculated from IC50 of NPN displacement, read-out: Kd
[8] = CquiOBP1, NPN displacement titration, read-out: IC50
[9] = CquiOBP1, calculated from IC50 of NPN displacement, read-out: Kd

Molecule	IC50 (CquiOBP5; [4])	Kd (CquiOBP5; [5])	Int (fluorescence emission) (CquiOBP5; CquiOBP5)	IC50 (CquiOBP2; [6])	Kd (CquiOBP2; [7])	Int (fluorescence emission) (CquiOBP2; CquiOBP2)	IC50 (CquiOBP1 [1]; [8])	Kd (CquiOBP1 [1]; [9])	Int (fluorescence emission) (CquiOBP1 [1]; CquiOBP1)	further results
CCCCCCCCCC(C)=O [2-undecanone]										binding to AfunOBP1 (AfunOBP1): best ligand
c1ccc2[nH]ccc2c1 [Indole, indole]	> 10 µM	> 7 µM	80	> 10 µM	> 2.5 µM	87	> 10 µM	> 6.3 µM	86	binding to AgamOBP1 (AgamOBP1): selectively bind
C=CC1(C)CCC(C(C)(C)O)O1 (centres unmarked) [Linalool oxide, linalool oxide]	> 10 µM	> 7 µM	94	> 10 µM	> 2.5 µM	95	> 10 µM	> 6.3 µM	92	
C=CC(C)(O)CCC=C(C)C (centres unmarked) [Linalool, linalool]	> 10 µM	> 7 µM	86	> 10 µM	> 2.5 µM	97	> 10 µM	> 6.3 µM	91	
CCCCCCCCCC[C@H](OC(C)=O)[C@H]1CCCC(=O)O1 [MOP, (5R,6S)-6-acetoxy-5-hexadecanolide]	10.3 µM	7.2 µM	52	> 10 µM	> 2.5 µM	86	8.4 µM	5.3 µM	48	pH of the midpoint transition (CquiOBP1 [2]): 6.3; binding to CquiOBP5 (in words) (CquiOBP5): bound; binding to CquiOBP2 (in words) (CquiOBP2): cannot displace NPN; binding to CquiOBP1 (in words) (CquiOBP1 [1]): bound; EAG responses, knockdown vs wild type [3]: significant lower; binding to AaegOBP1 (AaegOBP1): bound
COC(=O)c1ccccc1O [Methyl salicylate, methyl salicylate]	> 10 µM	> 7 µM	89	> 10 µM	> 2.5 µM	72	> 10 µM	> 6.3 µM	87	
c1ccc(Nc2cccc3ccccc23)cc1 [NPN, N-phenyl-1-naphthylamine]										Kd (CquiOBP5; direct titration of CquiOBP5 (10 μg/ml) with NPN, read-out: Kd for NPN): 2.3 ± 0.19 µM; Kd (CquiOBP2; direct titration of CquiOBP2 (10 μg/ml) with NPN, read-out: Kd for NPN): 0.5 ± 0.02 µM; Kd (CquiOBP1 [1]; direct titration of CquiOBP1 (10 μg/ml) with NPN, read-out: Kd for NPN): 1.71 ± 0.13 µM
CCCCCCCCC=O [Nonanal, nonanal]	8.3 µM	5.8 µM	46.5	> 10 µM	> 2.5 µM	87	10.5 µM	6.6 µM	51.4	pH of the midpoint transition (CquiOBP1 [2]): 5.5; EAG responses, knockdown vs wild type [3]: not significantly different
CC1CCC(C(C)(C)O)C(O)C1 (centres unmarked) [PMD, p-mentan-3,8-diol]	13.8 µM	9.6 µM	61	5.3 µM	1.3 µM	35	> 10 µM	> 6.3 µM	80	
CCC(C)OC(=O)N1CCCCC1CCO (centres unmarked) [Picaridin, butan-2-yl 2-(2-hydroxyethyl)piperidine-1-carboxylate]			45			77			51	pH of the midpoint transition (CquiOBP1 [2]): 5.8; IC50 (CquiOBP5): 7.9 µM; Kd (CquiOBP5): 5.6 µM; IC50 (CquiOBP2): > 10 µM; Kd (CquiOBP2): > 2.5 µM; IC50 (CquiOBP1 [1]): 10.2 µM; Kd (CquiOBP1 [1]): 6.4 µM
Cc1c[nH]c2ccccc12 [Skatole, skatole]	14.4 µM	10.1 µM	62	5.6 µM	1.4 µM	31	> 10 µM	> 6.3 µM	75	binding to CquiOBP5 (in words) (CquiOBP5): bind; binding to CquiOBP2 (in words) (CquiOBP2): bind; binding to CquiOBP1 (in words) (CquiOBP1 [1]): does not bind
CC(=O)CCC=C(C)C [Sulcatone, 6-methyl-5-hepten-2-one]			66			84			87	IC50 (CquiOBP5): > 10 µM; Kd (CquiOBP5): > 7 µM; IC50 (CquiOBP2): > 10 µM; Kd (CquiOBP2): > 2.5 µM; IC50 (CquiOBP1 [1]): > 10 µM; Kd (CquiOBP1 [1]): > 6.3 µM
CC(C)[C@]12CC(=O)[C@H](C)[C@H]1C2 [Thujone, thujone]			90			87			96	IC50 (CquiOBP5): > 10 µM; Kd (CquiOBP5): > 7 µM; IC50 (CquiOBP2): > 10 µM; Kd (CquiOBP2): > 2.5 µM; IC50 (CquiOBP1 [1]): > 10 µM; Kd (CquiOBP1 [1]): > 6.3 µM
(±)-citronellal	> 10 µM	> 7 µM	90	> 10 µM	> 2.5 µM	88	> 10 µM	> 6.3 µM	65	
